Source: patent US10077236B2, “Azacyclic constrained analogs of FTY720” (The Regents of the University of California, priority 2013, dated 2018)

Columns and labels:
SphK1 null MEFs = assay: Sensitivity of SphK1 null MEFs; format: cell-based
Procedure: The importance of phosphorylation in the activity of compound 6 was then examined. In this study MEF knockout lines that show the same differential sensitivity to compound 6 relative to its enantiomers as leukemia cells were used (FIG. 10h). […] A phosphate and a non-phosphorylatable analog of compound 6 were then tested.

BCR-Abl- LAX7R cells = assay: Combination with trametinib in BCR-Abl- LAX7R patient leukemia cells; format: cell-based, human; details: some BCR-Abl negative patient leukemia samples
Text: FIGS. 10n and 10o provide data results from a study of the effectiveness of treating BCR-Abl+ SFO2 cells (10n), and also in BCR-Abl− LAX7R cells (10o), which is a late-stage leukemia resistant to chemotherapy.

[1] = tested on: DU145 prostate cancer cell line; assay: Cell viability assay, DU145; format: cell-based, human; details: 72 h, vital dye exclusion and flow cytometry; read-out: Mean IC50 (+/- SEM) in cell viability assay, DU145 prostate
Procedure: (§1) Flow cytometry: Much of the biological activity presented is shown through flow cytometry data. […] Here, IC50 flow cytometry assays were used. […] To measure nutrient receptor expression following exposure to FTY720 and azacyclic constrained analogs of FTY720, surface 4F2hc expression was measured after 3 hours of drug treatment by staining 150,000 cells with phycoerythrin-conjugated mouse anti-human CD98 (by BD Biosciences™). Analysis was restricted to viable cells. All samples for the disclosed sets of data were analyzed on a BD LSR II flow cytometer and data analyzed with FlowJo™ software (by Treestar™). IC50's were calculated and statistical tests were performed using GraphPad Prism™.

[2] = tested on: PC3 prostate cancer cell line; assay: Cell viability assay, PC3; format: cell-based, human; details: 72 h, vital dye exclusion and flow cytometry; read-out: Mean IC50 (+/- SEM) in cell viability assay, PC3 prostate
Procedure: as §1

[3] = tested on: patient-derived BCR-Abl+ acute lymphoblastic leukemia cells; assay: Viability of patient-derived BCR-Abl+ acute lymphoblastic leukemia cells; format: cell-based, human; details: 96 h, flow cytometry (vital dye exclusion)
Procedure: Finally, in FIG. 10g dose response curves are provided for studies conducted with patient-derived BCR-Abl+ acute lymphoblastic leukemia cells. Viability was measured at 96 h by flow cytometry (vital dye exclusion).

[4] = tested on: CCRF-CEM Ph- ALL cell line; assay: Cell viability assay, CCRF-CEM; format: cell-based, human; details: 72 h, vital dye exclusion and flow cytometry; read-out: Mean IC50 (+/- SEM) in cell viability assay, CCRF-CEM Ph- ALL
Text: (§2) Leukemia cell assays: Effects of chemical changes on ability to kill cells as observed in cell viability assays using the BCR-ABL positive human acute lymphoblastic leukemia (ALL) cell line, Sup-B15 are described. Assays using the Sup-B15 cell line were designed to determine efficacy of azacyclic constrained small molecule analogs of FTY720 in killing leukemia cells. Analogs were generated using the synthesis methods mentioned above. Sup-B15 cells were maintained at 2-3 million/mL in RPMI 1640 (by Mediatech™) supplemented with 10% fetal calf serum (by Sigma-Aldrich™), 10 mM Hepes (by Mediatech™), 55 μM β-mercaptoethanol (by Sigma-Aldrich™), 2 mM L-glutamine (by Mediatech™), and antibiotics. BV173, Nalm-6, and Blin-1 were maintained at 1-2 million/mL and CCRF-CEM at less than 500,000/mL in the same medium. BMp190 cells were created by transducing murine bone marrow cells with pMIC-p190 which expresses the p190 isoform of BCR-Abl and human CD4 from an IRES; these cells were kept at 1-2 million/mL in RPMI supplemented as above.
(§3) Flow cytometry: Much of the biological activity presented is shown through flow cytometry data. […] Here, IC50 flow cytometry assays were used. In them, viability was determined at 72 hours by vital dye exclusion [propium iodide or DAPI (4′,6-diamindino-2-phenylindole)]. To measure nutrient receptor expression following exposure to FTY720 and azacyclic constrained analogs of FTY720, surface 4F2hc expression was measured after 3 hours of drug treatment by staining 150,000 cells with phycoerythrin-conjugated mouse anti-human CD98 (by BD Biosciences™). Analysis was restricted to viable cells.
(§4) All samples for the disclosed sets of data were analyzed on a BD LSR II flow cytometer and data analyzed with FlowJo™ software (by Treestar™). IC50's were calculated and statistical tests were performed using GraphPad Prism™.

Nalm-6 Ph- ALL cell line = assay: Cell viability assay, Nalm-6; format: cell-based, human; details: 72 h, vital dye exclusion and flow cytometry; read-out: Mean IC50 (+/- SEM) in cell viability assay, Nalm-6 Ph- ALL
Text: as §2, §3, §4

[5] = tested on: SupB15 model, leukemic burden in the bone marrow; assay: In vivo SupB15 leukemia model; details: 21 days of treatment, 10 mg/kg i.p.
Text: Since compound 6 worked so well in the leukemia cell line, an examination of its effectiveness in vivo in a SupB15 model was undertaken.

[6] = tested on: BMp190 cells (murine bone marrow transduced with BCR-Abl p190); assay: Cell viability assay, BCR-Abl p190-expressing murine bone marrow (BM-p190); format: cell-based
Text: as §2, §3, §4

[7] = Distribution of compound 6 and its phosphorylated form in plasma, bone marrow and spleen of mice; format: in vivo; details: normalization to total protein; tissues versus blood
Procedure: A study was then conducted to examine what happens to compound 6 when administered to animals. Mice were treated with 10 mg/kg doses of compound 6 (i.p.) and then the mice were sacrificed at various time points, then plasma, bone marrow, and spleen tissue were extracted to build curves. […] Indeed, the ratio of phosphorylated to unphosphorylated compound 6 in the spleen and bone marrow is close to 1:1 after i.p. administration.

In the case of `CCCCCCCCc1ccc(CO[C@@H]2CN[C@@H](CO)C2)cc1.Cl` [Compound 6], the “differential sensitivity to compound 6 relative to its enantiomers” value (SphK1 null MEFs) is reported as “this difference is maintained”, the “sensitivity, combination with trametinib” value (BCR-Abl- LAX7R cells) is reported as “sensitive to this drug combination” and the “sensitivity, single agent” value (BCR-Abl- LAX7R cells) is reported as “not sensitive to compound 6 as a single agent”. The IC50 [1] was 15.1 ± 1 µM, the IC50 [2] was 13.5 ± 2.6 µM and the “potency in dose response, viability” value [3] was “more potent than FTY720 and its enantiomer, compound 39”. For the same compound, the IC50 [4] was 8.2 ± 0.7 µM, the IC50 (Nalm-6 Ph- ALL cell line) was 13.5 ± 2.4 µM and the “leukemic burden in the bone marrow” value [5] was “dramatic reduction in the leukemic burden in the bone marrow”. For the same compound, the IC50 ([6]; 72 h, vital dye exclusion and flow cytometry, read-out: Mean IC50 (+/- SEM) in cell viability assay, BM-p190) was 500 ± 100 nM, the “more active than compound 5” value ([6]; murine bone marrow transformed by BCR-ABL p190) was 10 fold and the tissue accumulation [7] was “accumulates in tissues to higher levels than are present in blood”.
